Data on seven molecules can be found in patent US20260242359A1, “IRHOM2 INHIBITORS AND USES THEREOF” (NEW YORK SOCIETY FOR THE RELIEF OF THE RUPTURED AND …, priority 2023, published 2026).

The test system of the assay is PMA-induced release of endogenous TGFα from human PC3 prostate cancer cells. Briefly: Example 17: ELISA-based TGFα release assay, PMA-induced, PC3 prostate cancer cells. Type of assay: cell-based. The conditions noted are these: 10 μM final concentration, PMA 25 ng/ml, delta Buffer stimulated vs unstimulated = 100% inhibition; for inhibition at 10 µM: Homo sapiens. The protocol:
In the following study, ELISA-based TGFα release assays were performed to analyze the inhibitory effects of Compounds 1, 2, 3, 4, 5, and 7 on PMA-induced release of endogenous TGFα, from human PC3 prostate cancer cells. The ELISA-based TGFα release assay that was used in this example is described below.
In brief, on day 1, Nunc black MaxiSorp® 96-well plates (Thermo Fisher Scientific, USA) were coated overnight with 100 μl per well of goat anti-human TGFα capture antibody (provided as part of the DuoSet ELISA kit) at 0.4 μg/ml TBS at 4° C.
75,000 PC3 (European Collection of Authenticated Cell Cultures, UK) cells in 100 μl of normal growth medium were seeded in each well of F-bottom 96-well cell culture plates (Corning, USA) and incubated at 37° C., 5% CO2 overnight. On day 2, the capture antibody solution was removed and MaxiSorp® plates were blocked with 300 μl per well of TBS, 1% BSA at room temperature for 5 hours. Meanwhile, cells were washed twice with PBS and pre-incubated in 80 μl of OptiMEM medium with 20 μl per well of OptiMEM medium supplemented with Batimastat (BB94, Abcam, UK) at 50 μM as positive control (for a final concentration of 10 μM in the resulting 100 μl sample volume), compounds of the invention at 50 μM (for a final concentration of 10 μM in the resulting 100 μl sample volume) and in case of Buffer stimulated and unstimulated controls with DMSO (Carl Roth, Germany) at 50 μM (for a final concentration of 10 μM in the resulting 100 μl sample volume) at 37° C., 5% CO2 for 30 minutes. Subsequently, cells (except those for unstimulated controls) were stimulated with 20 μl per well of PMA (Sigma-Aldrich, USA) at 150 ng/ml in OptiMEM for a final concentration of 25 ng/ml at 37° C., 5% CO2 for 2 hours. In parallel, blocking buffer was removed from the MaxiSorp® plates and plates were washed 4 times with 350 μl TBS-T (Carl Roth, Germany) per well on a 96-head plate washer (Tecan Group, Switzerland). To avoid drying-up, 20 μl TBS were added to each well of the MaxiSorp® plates immediately, followed by the transfer of 80 μl cell-free supernatant per sample. Additionally, 100 μl recombinant human TGFα protein (provided as part of the DuoSet ELISA kit) diluted in TBS at defined concentrations were added to the plate as standard references. Thereafter, 100 μl biotinylated goat anti-human TGFα detection antibody (provided as part of the DuoSet ELISA kit) at 37.5 ng/ml in TBS were added per well and, protected from direct light, plates were incubated at room temperature for 2 hours. After 4 times washing with 350 μl TBS-T (Carl Roth, Germany) per well on a 96-head plate washer (Tecan Group, Switzerland) and careful removal of all buffer traces after the fourth cycle, 100 μl streptavidin-AP (R&D Systems, USA) diluted 1:10,000 in TBS were added to each well and, again protected from direct light, plates were incubated at room temperature for 30 minutes. Following another round of 4 times washing with 350 μl TBS-T (Carl Roth, Germany) per well on a 96-head plate washer (Tecan Group, Switzerland) and careful removal of all buffer traces after the fourth cycle, 100 μl AttoPhos substrate solution (Promega, USA) per well was added for incubation in the dark at room temperature for 1 hour. Using an infinite M1000 (Tecan Group, Switzerland) microplate reader, the fluorescence of each well was collected at an excitation wavelength of 435 nm and an emission wavelength of 555 nm.
The delta between Buffer stimulated and Buffer unstimulated was defined 100% inhibition.

Regarding `CNC(=O)[C@H](Cc1ccccc1)NC(=O)[C@H](CC(C)C)[C@H](CSc1cccs1)C(=O)NO` [Batimastat, reference compound], the “inhibition of PMA-induced release of TGFα from PC3 cells” value (2 hours) is reported as 102.5%. For the same molecule, the inhibition at 10 µM (PC-3, 2 h) is 104%.
As for `CCC(=O)NCCc1c(/C=C2/C(=O)NC(=O)N(c3ccc(C)cc3C)C2=O)[nH]c2ccccc12` [Compound 1], the inhibition at 10 µM (PC-3, 2 hours) was found to be 25.5%.
Consider `CCOC(=O)c1ccc(Nc2nc3nonc3n3nnnc23)cc1` [Compound 2], for which the inhibition at 10 µM (PC-3, 2 h) turned out to be 9.1%.
For the molecule `O=C(c1c(Cl)cccc1Cl)N1CCC(Cc2ccc(F)cc2)CC1` [Compound 3], where the note is “PC-3, 2 h”, the inhibition at 10 µM turned out to be 12.5%.
The same measure, in the same setting: the value for `Cc1c(C(=O)NCc2cccs2)sc(=O)n1Cc1ccccc1` [Compound 4] was 14.1%.
Same read-out and setting: the value for `Cc1c(C(=O)NCc2cccs2)sc(=O)n1Cc1ccccc1F` [Compound 5] was 11.3%.
On to `Cc1c(C(=O)NCc2ccco2)sc(=O)n1Cc1ccccc1F` [Compound 7], for which the inhibition at 10 µM (PC-3, 2 h) came to 27.3%.
